These results are taken from patent US5798093A (priority 1997, dated 1998).

Data set [1] has as its system Compound 48/80-induced scratching. As to the kind of experiment: Anti-pruritic activity, mouse scratch model (Compound 48/80-induced scratching). Format: in vivo, mouse (male Swiss albino). The settings on record: s.c.; for Mean % Inhibition of Scratching: Compound 48/80 challenge, 30 min; for antagonism of Compound 48/80-induced scratching (in words): dose-related. The method, then:
Testing was performed in a mouse scratch model under blind conditions.
Groups of 8-10 male Swiss albino mice (Hilltop Lab Animals, Inc., Scottsdale, Pa.), weighing […], were used in the testing. They were housed under controlled temperature of 23-25° C. Food and water were freely available. Before the experiments, the mice were weighed, put into individual boxes and allowed to acclimate for 30 min.
Vehicle used to dissolve the test compounds: 20% w/w cremophor EL.
[…] of the vehicle (3-5 doses, n-8-10) was injected s.c. into the back of the neck of mice 20 min. before challenging them with 100 μl of Compound 48/80 (2 mg/ml; 50 μg) injected s.c. into the back of the neck.
To each mouse of a group of 8-10 mice previously subjected to the standard challenge various doses of the compounds, to be tested for anti-pruritic activity, were administered s.c. into the back of the neck.
For each group of 8-10 mice, the mean values for scratching were normalized to relative % antagonism of scratching and then plotted vs. dose of test compounds. Interval estimates of mean A50 were determined by nonlinear regression analysis (Kalcida Graph) and mean % inhibition of scratching was calculated.

The subject of data set [2] is warm water induced tail withdrawal reflex / castor oil diarrhea. The note with it: po.
Description: Peripheral selectivity is defined by the ratio of the ED50 in the tail-withdrawal assay over the ED50 in the anti-diarrheal assay.
Measure of Centrally-Mediated Opiod Analgesia by the Tail-Withdrawal Assay (Janssen, P. A. J.; Niemegeers, C. J. E.; Dony, J. G. H., The Inhibitory effect of Fentanyl and other morphine-like analgesics on the warm water induced tail withdrawal reflex in rats. Arzneimittel-Forschung 1963, 13, 502-507.)
Young female Wistar rats (170-210 g body weight) are used only once. […] Around 8:30 AM the "normal" reaction time of each rat is determined by immersing the lower 5 cm portion of the tail in a cup freshly filled with water from a large constant temperature (55° C.) bath until the typical tail withdrawal response is observed. […] The reaction time is measured in 0.5 second units with a stopwatch. […] Periodically thereafter (i.e., 1/4, 1/2, 1, 2, 3, 4, 5 and 6 hours after dosage) the reaction time is again measured by trained technicians unaware of the nature of the compounds. Results of these studies are expressed as ED50 concentration values (mg/kg), calculated as the dose producing a tail withdrawal latency equal to half the difference between the maximum latency (≤15 seconds) and the baseline latency (6 to 8 seconds). […]
The conditions of data set [3]: reported; antidiarrheal use; cited from earlier work.
In a further data set the test system is itch. The note with it: cited from earlier work.

As for `O=C(N1CCCCC1)C(CCN1CCC(O)(c2ccccc2)CC1)(c1ccccc1)c1ccccc1` [Compound 1, 1-[4-(4-Hydroxy-4-phenyl-1-piperidino)-2,2-diphenylbutyryl]piperidine], the figures for the “Mean % Inhibition of Scratching” value in data set [1] (2.5 mg/kg), in data set [1] (5.0 mg/kg) and in data set [1] (10.0 mg/kg) were 32%, 65% and 83%, respectively. The “antagonism of Compound 48/80-induced scratching (in words)” value (shortened to “antagonism”) in data set [1] is given as “antagonized Compound 48/80-induced scratching in a dose-related manner”. For `CN(C)C(=O)C(CCN1CCC(O)(c2ccc(Br)cc2)CC1)(c1ccccc1)c1ccccc1` [Compound 3, 4-(p-Bromophenyl)-4-hydroxy-N,N-dimethyl-α,α-diphenyl-1-piperidinebutyramide], the “antagonism” value in data set [1] is recorded as “antagonized Compound 48/80-induced scratching in a dose-related manner”. Consider `O=C(N1CCCC1)C(CCN1CCC(O)(c2ccc(Cl)c(Cl)c2)CC1)(c1ccccc1)c1ccccc1` [Compound 4], for which the “Peripheral Selectivity (ED50tw /ED50 Castor Oil)” value in data set [2] is on record as greater than 640. As to `CN(C)C(=O)C(CCN1CCC(O)(c2ccc(Cl)cc2)CC1)(c1ccccc1)c1ccccc1` [Compound 6, 4-(p-Chlorophenyl)-4-hydroxy-N,N-dimethyl-α,α-diphenyl-1-piperidinebutyramide], the “antagonism” value in data set [1] is “antagonized Compound 48/80-induced scratching in a dose-related manner”. For the same molecule, in data set [3], the “CNS effects (in words)” value is listed as “devoid of CNS effects”. `CN(C)C(=O)C(CCN1CCC(O)(c2ccc(Cl)cc2)CC1)(c1ccccc1)c1ccccc1.Cl` [Example 2, 4-(p-Chlorophenyl)-4-hydroxy-N,N-dimethyl-α,α-diphenylpiperidine-1-butyramide hydrochloride]: in data set [3], the “CNS effects (in words)” value is listed as “completely free of the undesirable CNS effects”. On to `NCCc1c[nH]cn1` [histamine], for which the “induction of itch (in words)” value with itch (humans / application to skin) is “produces itch but not pain”.

Turning to `CN1CC[C@]23c4c5ccc(O)c4O[C@H]2[C@@H](O)C=C[C@H]3[C@H]1C5` [morphine], the “generalized itching, incidence” value in the data set with itch (i.v.) is reported as “about 1 % of patients”. Regarding cyclosporin A, the “inhibition of itch in atopic dermatitis (in words)” value in the data set with itch (atopic dermatitis) was “itch is not inhibited by antihistamines, but by cyclosporin A”.
